# Read-outs that look alike come from different tables or passages of the source.
# Tests used:
# [1] = DPPH bleaching (radical scavenging); conditions: 25 μM DPPH in ethanol, 30 min at room temperature, absorbance 517 nm; ± SEM
# Method: DPPH solution (25 μM) in absolute ethanol was prepared. […] Ethanol was used as control solution. After 30 min at room temperature, the absorbance was recorded at 517 nm.
# The radical scavenging ability of all synthetic compounds using stable free radicals (DPPH: 2,2-diphenyl-
# 1-picrylhydrazyl) has been previously measured (Table 1) ([15]). In this assessment, the DPPH bleaching potency of the synthetic compounds has been reported as IC50 values.
# [2] = molecular target: T1, SLO (soybean 15-lipoxygenase: L1; EC 1,13,11,12) (Glycine max, UniProt P08170); assay: 15-lipoxygenase inhibitory assessment (peroxide formation method); type: biochemical; conditions: for IC50: SLO
# T1 sequence (P08170 1-839): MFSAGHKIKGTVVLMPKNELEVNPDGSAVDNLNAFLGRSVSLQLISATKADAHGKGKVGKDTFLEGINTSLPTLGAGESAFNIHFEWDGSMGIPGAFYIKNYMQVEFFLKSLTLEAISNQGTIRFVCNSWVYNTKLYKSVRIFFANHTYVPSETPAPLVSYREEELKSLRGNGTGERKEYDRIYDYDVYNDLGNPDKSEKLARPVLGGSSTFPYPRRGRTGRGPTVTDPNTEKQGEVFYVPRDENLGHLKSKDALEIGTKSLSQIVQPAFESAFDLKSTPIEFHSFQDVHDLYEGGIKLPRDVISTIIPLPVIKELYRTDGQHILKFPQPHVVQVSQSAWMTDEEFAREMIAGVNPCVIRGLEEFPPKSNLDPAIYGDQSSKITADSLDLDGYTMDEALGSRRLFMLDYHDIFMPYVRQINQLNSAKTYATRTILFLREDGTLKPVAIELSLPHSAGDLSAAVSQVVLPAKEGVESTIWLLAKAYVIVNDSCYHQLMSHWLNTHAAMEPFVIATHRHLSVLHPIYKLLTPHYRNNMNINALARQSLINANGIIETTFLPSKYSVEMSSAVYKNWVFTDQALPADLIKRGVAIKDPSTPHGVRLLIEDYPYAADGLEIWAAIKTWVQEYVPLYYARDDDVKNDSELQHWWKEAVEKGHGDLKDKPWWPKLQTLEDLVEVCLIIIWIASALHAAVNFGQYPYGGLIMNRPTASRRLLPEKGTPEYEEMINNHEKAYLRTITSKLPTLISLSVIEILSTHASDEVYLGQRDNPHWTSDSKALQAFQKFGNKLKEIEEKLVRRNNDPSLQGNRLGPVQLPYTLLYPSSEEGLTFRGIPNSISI
# Method: Linoleic acid and two assay solutions (A and B) were prepared in advance. Solution A was 50 mM (3-dimethylaminobenzoic acid) (DMAB) in l00 mM phosphate buffer (pH 7.0). Solution B was a mixture of l0 mM (3-methyl-2-benzothiazolonhydrazone) (MBTH) (3 ml), hemoglobin (5 mg/ml, 3 ml) in 50 mM phosphate buffer at pH 5.0 (25 ml). A linoleic acid solution was prepared by mixing 5 mg of linoleic acid with 0.5 ml ethanol and then diluting with KOH 100 mM to a final volume of 5 ml. In the standard assay, the sample in ethanol (25 µl), SLO (4,000 units/ml in 50 mM phosphate buffer pH 7.0; 25 µl), and phosphate buffer pH 7.0 (50 mM; 900 µl) were mixed in a test tube, and pre-incubation was carried out for 5 min at room temperature. A control test was performed with the same volume of ethanol. After pre-incubation, linoleic acid solution (50 µl) was added to start the peroxidation reaction, and, 7 min later, solution A (270 µl) and then solution B (130 µl) were added to start the color formation. Further, 5 min later, 200 µl of a 2 % sodium dodecyl sulfate (SDS) solution was added to terminate the reaction. The absorbance at 598 nm was compared to control test.
# The inhibitory activity of all synthetic compounds against SLO (soybean 15-lipoxygenase: L1; EC 1,13,11,12) was determined using the peroxide formation method ([13], [14]). In this method, the basis of evaluation of lipoxygenase activity is measuring the concentration of fatty acid peroxide. All measurements were compared with 4-methyl-2-(4-methylpiperazinyl)pyrimido[4,5-b]benzothiazine (4-MMPB), one of the known lipoxygenase inhibitors (Table 1).
# [3] = linoleic acid substrate, pH 7.0, absorbance 598 nm, ± SEM, read-out: Lipoxygenase inhibition IC50
# [4] = read-out: IC50 inhibitory activity against soybean 15-lipoxygenase (abstract)
melting point [°C],IC50 [1] [µM],"IC50 [2, 3] [µM]","IC50 [2, 4] [µM]",SMILES,fold less inhibitory potency versus 2b ([2]; lipoxygenase inhibition IC50 compared with 2b)
120 to 122,> 500,40.1 ± 2.2,–,"COc1cc(C(=O)O[C@H]2C3(C)CCC(C3)C2(C)C)ccc1O (stereo partly drawn) [2a, (2S)-1,3,3-trimethylbicyclo[2.2.1]heptan-2-yl 4-hydroxy-3-methoxybenzoate]",–
209 to 211,6.5 ± 0.43,5.4 ± 0.55,–,"O=C(NC12CC3CC(CC(C3)C1)C2)c1ccc(O)c(O)c1 [3a', N-((3s,5s,7s)-adamantan-1-yl)-3,4-dihydroxybenzamide]",–
–,10.9 ± 1.1,1.67 ± 0.22,–,"CC12CCC(C1)C(C)(C)[C@H]2OC(=O)/C=C/c1ccc(O)c(O)c1 (stereo partly drawn) [2g, (2S)-1,3,3-trimethylbicyclo[2.2.1]heptan-2-yl (E)-3-(3,4-dihydroxyphenyl)acrylate]",–
161 to 164,5.98 ± 0.53,2.7 ± 0.13,–,"O=C(/C=C/c1ccc(O)c(O)c1)OCC12CC3CC(CC(C3)C1)C2 [2n, ((3r,5r,7r)-adamantan-1-yl)methyl(E)-3-(3,4-dihydroxyphenyl)acrylate]",–
–,> 500,273 ± 11.3,–,"COc1cc(C(=O)O[C@@H]2CC3CCC2(C)C3(C)C)ccc1O (stereo partly drawn) [2h, (2R)-1,7,7-trimethylbicyclo[2.2.1]heptan-2-yl 4-hydroxy-3-methoxybenzoate]",–
191 to 196,18 ± 1.9,3.9 ± 0.61,–,"O=C(/C=C/c1ccc(O)c(O)c1)OC12CC3CC(CC(C3)C1)C2 [2l, (3s,5s,7s)-adamantan-1-yl (E)-3-(3,4-dihydroxyphenyl) acrylate]",–
130 to 132,5.05 ± 4.08,188 ± 14,–,"COc1cc(/C=C/C(=O)NC23CC4CC(CC(C4)C2)C3)ccc1O [3b', (E)-N-((3s,5s,7s)-adamantan-1-yl)-3-(4-hydroxy-3-methoxyphenyl)acrylamide]",–
–,17.1 ± 2,38.5 ± 1.97,–,"Cc1nc(N2CCN(C)CC2)nc2c1Sc1ccccc1N2 [4-MMPB, 4-methyl-2-(4-methylpiperazinyl)pyrimido[4,5-b]benzothiazine, reference compound]",–
–,> 500,> 500,–,"COc1ccc(C(=O)O[C@H]2C3(C)CCC(C3)C2(C)C)cc1OC (stereo partly drawn) [2d, (2S)-1,3,3-trimethylbicyclo[2.2.1]heptan-2-yl 3,4-dimethoxybenzoate]",–
40 to 42,9.4 ± 0.81,–,0.78,"CC1(C)C2CCC1(C)[C@H](OC(=O)c1ccc(O)c(O)c1)C2 (stereo partly drawn) [2o, (2R)-1,7,7-trimethylbicyclo[2.2.1]heptan-2-yl 3,4-dihydroxybenzoate]",–
58 to 61,10 ± 1,1.68 ± 0.61,–,"CC12CCC(C1)C(C)(C)[C@H]2OC(=O)c1ccc(O)c(O)c1 (stereo partly drawn) [2b, (2S)-1,3,3-trimethylbicyclo[2.2.1]heptan-2-yl 3,4-dihydroxybenzoate]",–
–,> 500,> 500,–,"COc1cccc(C(=O)O[C@H]2C3(C)CCC(C3)C2(C)C)c1 (stereo partly drawn) [2c, (2S)-1,3,3-trimethylbicyclo[2.2.1]heptan-2-yl 3-methoxybenzoate]",–
–,> 500,194 ± 11.3,–,"COc1cc(/C=C/C(=O)O[C@H]2C3(C)CCC(C3)C2(C)C)ccc1O (stereo partly drawn) [2f, (2S)-1,3,3-trimethylbicyclo[2.2.1]heptan-2-yl(E)-3-(4-hydroxy-3-methoxyphenyl)acrylate]",–
212 to 217,10.8 ± 0.67,3.57 ± 0.19,–,"O=C(OCC12CC3CC(CC(C3)C1)C2)c1ccc(O)c(O)c1 [2m, (3r,5r,7r)-adamantan-1-yl)methyl 3,4-dihydroxybenzoate]",–
171 to 173,3.46 ± 0.33,1.71 ± 0.41,–,"CC12CCC(C1)C(C)(C)[C@H]2OC(=O)c1cc(O)c(O)c(O)c1 (stereo partly drawn) [2e, (2S)-1,3,3-trimethylbicyclo[2.2.1]heptan-2-yl 3,4,5-trihydroxybenzoate]",–
170 to 173,9.1 ± 0.79,–,0.95,"O=C(OC12CC3CC(CC(C3)C1)C2)c1ccc(O)c(O)c1 [2j, (3s,5s,7s)-adamantan-1-yl 3,4-dihydroxybenzoate]",–
195 to 199,4.5 ± 0.19,2.28 ± 0.1,–,"O=C(OC12CC3CC(CC(C3)C1)C2)c1cc(O)c(O)c(O)c1 [2k, (3s,5s,7s)-adamantan-1-yl 3,4,5-trihydroxybenzoate]",–
136 to 139,> 500,164 ± 13.2,–,"COc1cc(C(=O)OC23CC4CC(CC(C4)C2)C3)ccc1O [2i, (3s,5s,7s)-adamantan-1-yl 4-hydroxy-3-methoxy benzoate]",–

SMILES,melting point [°C],IC50 [1] [µM],"IC50 [2, 3] [µM]","IC50 [2, 4] [µM]",fold less inhibitory potency versus 2b ([2]; lipoxygenase inhibition IC50 compared with 2b)
"CCOC(=O)c1ccc(O)c(O)c1 [2p, ethyl catechuate]",–,9.2 ± 0.45,6.5 ± 0.53,–,about 5 fold

# From publication PMC6098951, “Design and synthesis of new esters of terpenoid alcohols as 15-lipoxygenase inhibitors” (Iranian Journal of Basic Medical Sciences, 2018)
